Data published in US20240336572A1, “SUBSTITUTED INDAZOLE PROPIONIC ACID DERIVATIVE COMPOUNDS AND USES THEREOF” (Pfizer Inc., priority 2023, published 2024).
pEC50: −log10 of the molar value.

How the values were obtained:
AMPK 221 = molecular target: T1, AMPK 221 (Homo sapiens, UniProt O43741+P54646); experiment: Biochemical profiling of AMPK activators by AMPK221 (HTRF/TR-FRET assay, SAMS peptide, PP2A dephosphorylation protection); conditions: for pEC50: phosphorylated AMPK 221 (α2β2δ1), 11 point dilution, duplicate, 4-parameter fit; for Emax: phosphorylated AMPK 221, maximal activation
T1 construct: open reading frames encoding the full-length α2, β2 and δ1 subunits of human AMPK; made in house; host or cells: E. coli BL21-CodonPlus (DE3)-RIPL, pET-14b
Experimental: (§1) The biochemical EC50 (half-maximal concentration required for full activation) of compounds for the activation of AMPK was evaluated by HTRF assay using LANCE Ultra ULight-Acetyl-CoA Carboxylase (SAMS) peptide (commercially available, Perkin Elmer catalog TRF0133-M).
The reaction was terminated after 60 minutes incubation at room temperature by the addition of 5 μL of stop and detection cocktail, which consisted of 1× Perkin Elmer Lance buffer (Perkin Elmer catalog number CR97-100), 40 mM EDTA (Thermo Fisher catalog number BP2482-100), and 2 nM Eu-anti-Acetyl CoA Carboxylase [pSer70] antibody (Perkin Elmer, TRF0208-M). Plates were spun at 1000 RPM, 10 seconds.

AMPK 111 = molecular target: T2, AMPK 111 (Homo sapiens, UniProt Q13131+Q9Y478); experiment: Biochemical profiling of AMPK activators by AMPK111 (HTRF/TR-FRET assay, SAMS peptide, PP2A dephosphorylation protection); conditions: for pEC50: phosphorylated AMPK 111 (α1β1δ1 as printed), 11 point dilution, duplicate, 4-parameter fit; for Emax: phosphorylated AMPK 111, maximal activation
T2 construct: open reading frames encoding the full-length α1, β1 and δ1 subunits of human AMPK; made in house; host or cells: E. coli BL21-CodonPlus (DE3)-RIPL, pET-14b
Experimental: as §1
Following a fifteen-minute room temperature incubation, 5 μL of 30 nM protein phosphatase PP2A (isolation detailed above) diluted in the assay buffer was added to the plate, to dephosphorylate pThr172 of AMPK. […] The reaction was terminated after 60 minutes incubation at room temperature, by the addition of 5 μL of stop and detection cocktail, which consisted of 1× Perkin Elmer Lance buffer (Perkin Elmer catalog number CR97-100), 40 mM EDTA (Thermo Fisher catalog number BP2482-100), and 2 nM Eu-anti-Acetyl CoA Carboxylase [pSer70] antibody (Perkin Elmer, TRF0208-M).

T2 sequence (Q13131 whole entry): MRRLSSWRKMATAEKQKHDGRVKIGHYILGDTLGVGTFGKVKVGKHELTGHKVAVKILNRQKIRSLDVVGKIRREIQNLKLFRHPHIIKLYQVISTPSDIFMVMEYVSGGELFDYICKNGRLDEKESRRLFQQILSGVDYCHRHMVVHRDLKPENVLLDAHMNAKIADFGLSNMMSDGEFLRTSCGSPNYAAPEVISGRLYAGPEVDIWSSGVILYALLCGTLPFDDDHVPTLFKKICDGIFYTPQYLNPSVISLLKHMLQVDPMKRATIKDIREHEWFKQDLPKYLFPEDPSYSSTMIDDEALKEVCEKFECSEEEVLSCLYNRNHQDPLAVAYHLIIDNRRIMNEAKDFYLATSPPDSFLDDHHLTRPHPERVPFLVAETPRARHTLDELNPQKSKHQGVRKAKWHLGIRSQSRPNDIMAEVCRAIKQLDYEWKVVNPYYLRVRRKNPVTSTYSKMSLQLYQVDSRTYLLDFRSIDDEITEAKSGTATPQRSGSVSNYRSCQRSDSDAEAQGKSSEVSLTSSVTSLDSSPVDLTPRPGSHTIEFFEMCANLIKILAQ
T2 sequence (Q9Y478 whole entry): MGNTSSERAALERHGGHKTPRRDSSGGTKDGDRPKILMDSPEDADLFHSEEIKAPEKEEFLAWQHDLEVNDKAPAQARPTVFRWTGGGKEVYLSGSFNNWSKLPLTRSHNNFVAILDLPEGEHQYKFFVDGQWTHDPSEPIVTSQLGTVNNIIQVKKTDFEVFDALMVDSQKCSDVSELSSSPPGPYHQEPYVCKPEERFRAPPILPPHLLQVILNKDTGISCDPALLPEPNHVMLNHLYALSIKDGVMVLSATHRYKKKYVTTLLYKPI
T2 sequence (P54619 whole entry partner): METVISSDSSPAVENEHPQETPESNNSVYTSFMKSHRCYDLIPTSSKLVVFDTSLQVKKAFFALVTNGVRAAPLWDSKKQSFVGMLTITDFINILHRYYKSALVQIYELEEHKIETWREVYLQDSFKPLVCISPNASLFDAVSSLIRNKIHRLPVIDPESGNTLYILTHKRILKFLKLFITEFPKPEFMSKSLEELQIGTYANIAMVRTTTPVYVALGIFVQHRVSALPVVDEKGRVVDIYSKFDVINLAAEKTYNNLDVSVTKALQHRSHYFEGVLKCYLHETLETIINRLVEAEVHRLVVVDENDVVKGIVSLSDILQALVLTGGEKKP
T1 sequence (P54646 whole entry): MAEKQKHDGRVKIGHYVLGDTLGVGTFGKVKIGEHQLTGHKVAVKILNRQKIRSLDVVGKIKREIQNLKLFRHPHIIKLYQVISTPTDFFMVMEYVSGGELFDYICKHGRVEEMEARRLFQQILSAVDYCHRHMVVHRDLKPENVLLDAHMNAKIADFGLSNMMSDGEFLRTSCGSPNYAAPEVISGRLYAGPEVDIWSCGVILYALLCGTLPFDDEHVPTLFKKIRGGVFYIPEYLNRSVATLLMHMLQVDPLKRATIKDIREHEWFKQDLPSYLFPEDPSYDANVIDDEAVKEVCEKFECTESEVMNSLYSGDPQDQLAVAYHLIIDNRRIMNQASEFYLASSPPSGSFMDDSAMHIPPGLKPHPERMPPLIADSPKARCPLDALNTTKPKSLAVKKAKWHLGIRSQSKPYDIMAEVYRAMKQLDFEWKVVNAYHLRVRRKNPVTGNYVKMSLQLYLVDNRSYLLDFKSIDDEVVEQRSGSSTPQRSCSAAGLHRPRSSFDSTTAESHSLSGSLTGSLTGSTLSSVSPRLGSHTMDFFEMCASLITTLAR
T1 sequence (O43741 whole entry): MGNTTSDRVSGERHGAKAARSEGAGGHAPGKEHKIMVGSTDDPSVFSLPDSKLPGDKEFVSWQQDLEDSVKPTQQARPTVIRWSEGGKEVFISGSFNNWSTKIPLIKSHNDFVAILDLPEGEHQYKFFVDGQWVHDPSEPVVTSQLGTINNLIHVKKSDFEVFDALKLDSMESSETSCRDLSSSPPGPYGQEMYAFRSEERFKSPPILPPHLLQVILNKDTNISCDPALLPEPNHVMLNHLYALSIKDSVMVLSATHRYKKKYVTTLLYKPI
T1 sequence (P54619 whole entry partner): as the sequence (P54619 whole entry partner) above

| SMILES | pEC50 (AMPK 221) | Emax (AMPK 221) [%] | pEC50 (AMPK 111) | Emax (AMPK 111) [%] |
| --- | --- | --- | --- | --- |
| NC(=O)c1ccc(-c2ccc(-c3cc4c(CCC(=O)O)n[nH]c4cc3Cl)cc2)c(O)c1 [Example 6, 3-(5-(4′-Carbamoyl-2′-hydroxy-[1,1′-biphenyl]-4-yl)-6-chloro-1H-indazol-3-yl)propanoic acid] | 8.40 | 53 | 8.22 | 64 |
| NC(=O)CSc1ccc(-c2ccc(-c3cc4c(CCC(=O)O)n[nH]c4cc3Cl)cc2)cc1 [Example 17, 3-(5-(4′-((2-amino-2-oxoethyl)thio)-[1,1′-biphenyl]-4-yl)-6-chloro-1H-indazol-3-yl)propanoic acid] | 7.08 | 49 | 7.47 | 80 |
| Cn1c(O)nc2cc(-c3ccc(-c4cc5c(CCC(=O)O)n[nH]c5cc4Cl)cc3)ccc21 [Example 53, 3-(6-chloro-5-(4-(2-hydroxy-1-methyl-1H-benzo[d]imidazol-5-yl)phenyl)-1H-indazol-3-yl)propanoic acid] | 6.19 | 55 | 6.66 | 69 |
| CN(C)C(=O)c1ccc(-c2ccc(-c3cc4c(CCC(=O)O)n[nH]c4cc3Cl)cc2)c(O)c1 [Example 12, 3-(6-chloro-5-(4′-(dimethylcarbamoyl)-2′-hydroxy-[1,1′-biphenyl]-4-yl)-1H-indazol-3-yl)propanoic acid] | 7.21 | 56 | 7.80 | 72 |
| CNC(=O)c1ccc(-c2ccc(-c3cc4c(CCC(=O)O)n[nH]c4cc3Cl)cc2)c(O)c1 [Example 23, 3-(6-chloro-5-(2′-hydroxy-4′-(methylcarbamoyl)-[1,1′-biphenyl]-4-yl)-1H-indazol-3-yl)propanoic acid] | 8.30 | 56 | 8.70 | 71 |
| Cc1cccc(O)c1-c1ccc(-c2cc3c(CCC(=O)O)n[nH]c3cc2Cl)cc1 [Example 15, 3-(6-chloro-5-(2′-hydroxy-6′-methyl-[1,1′-biphenyl]-4-yl)-1H-indazol-3-yl)propanoic acid] | 7.12 | 52 | 7.46 | 75 |
| COc1ccc(-c2ccc(-c3cc4c(CCC(=O)O)n[nH]c4cc3Cl)cc2)c(O)c1 [Example 21, 3-(6-chloro-5-(2′-hydroxy-4′-methoxy-[1,1′-biphenyl]-4-yl)-1H-indazol-3-yl)propanoic acid] | 7.01 | 56 | 6.82 | 65 |
| COc1ccc(C)c(-c2ccc(-c3cc4c(CCC(=O)O)n[nH]c4cc3Cl)cc2)c1O [Example 62, 3-(6-chloro-5-(2′-hydroxy-3′-methoxy-6′-methyl-[1,1′-biphenyl]-4-yl)-1H-indazol-3-yl)propanoic acid] | 7.85 | 57 | 7.60 | 72 |
| O=C(O)CCc1n[nH]c2cc(Cl)c(-c3ccc(-c4ccc5c(c4O)OCC5)cc3)cc12 [Example 68, 3-(6-chloro-5-(4-(7-hydroxy-2,3-dihydrobenzofuran-6-yl)phenyl)-1H-indazol-3-yl)propanoic acid] | 7.72 | 69 | 7.54 | 71 |
| O=C(O)CCc1n[nH]c2cc(Cl)c(-c3ccc(-c4ccc(OCCN5CCOCC5)cc4)cc3)cc12 [Example 38, 3-(6-chloro-5-(4′-(2-morpholinoethoxy)-[1,1′-biphenyl]-4-yl)-1H-indazol-3-yl)propanoic acid] | 6.68 | 64 | 7.02 | 67 |
| O=C(O)CCc1n[nH]c2cc(Cl)c(-c3ccc(-c4csc(CO)c4)cc3)cc12 [Example 58, 3-(6-chloro-5-(4-(5-(hydroxymethyl)thiophen-3-yl)phenyl)-1H-indazol-3-yl)propanoic acid] | 6.24 | 57 | 6.67 | 76 |
| O=C(O)CCc1n[nH]c2cc(Cl)c(-c3ccc(-c4ccc(C(=O)NCCCO)cc4)cc3)cc12 [Example 77, 3-(6-chloro-5-(4′-((3-hydroxypropyl)carbamoyl)-[1,1′-biphenyl]-4-yl)-1H-indazol-3-yl)propanoic acid] | 7.09 | 58 | 7.15 | 66 |
| O=C(O)CCc1n[nH]c2cc(Cl)c(-c3ccc(-c4ccncc4O)cc3)cc12 [Example 7, 3-(6-Chloro-5-(4-(3-hydroxypyridin-4-yl)phenyl)-1H-indazol-3-yl)propanoic acid] | 6.44 | 57 | 7.05 | 71 |
| Cc1ccccc1-c1ccc(-c2cc3c(CCC(=O)O)n[nH]c3cc2Cl)cc1 [Example 48, 3-(6-chloro-5-(2′-methyl-[1,1′-biphenyl]-4-yl)-1H-indazol-3-yl)propanoic acid] | 6.44 | 9 | 6.44 | 43 |
| NC(=O)Cc1ccc(-c2ccc(-c3cc4c(CCC(=O)O)n[nH]c4cc3Cl)cc2)cc1 [Example 30, 3-(5-(4′-(2-amino-2-oxoethyl)-[1,1′-biphenyl]-4-yl)-6-chloro-1H-indazol-3-yl)propanoic acid] | 6.76 | 65 | 7.44 | 80 |
| N#Cc1cccc(-c2ccc(-c3cc4c(CCC(=O)O)n[nH]c4cc3Cl)cc2)c1O [Example 55, 3-(6-chloro-5-(3′-cyano-2′-hydroxy-[1,1′-biphenyl]-4-yl)-1H-indazol-3-yl)propanoic acid] | 6.41 | 38 | 6.68 | 45 |
| O=C(O)CCc1n[nH]c2cc(Cl)c(-c3ccc(-c4ccc(Cl)cc4O)cc3)cc12 [Example 64, 3-(6-chloro-5-(4′-chloro-2′-hydroxy-[1,1′-biphenyl]-4-yl)-1H-indazol-3-yl)propanoic acid] | 6.21 | 48 | 6.69 | 76 |
| O=C(O)CCc1n[nH]c2cc(Cl)c(-c3ccc(-c4ccc(C(=O)O)cc4O)cc3)cc12 [Example 36, 4′-(3-(2-carboxyethyl)-6-chloro-1H-indazol-5-yl)-2-hydroxy-[1,1′-biphenyl]-4-carboxylic acid] | 6.70 | 49 | 7.35 | 68 |
| O=C(O)CCc1n[nH]c2cc(Cl)c(-c3ccc(-c4cccc(OC(F)F)c4O)cc3)cc12 [Example 57, 3-(6-chloro-5-(3′-(difluoromethoxy)-2′-hydroxy-[1,1′-biphenyl]-4-yl)-1H-indazol-3-yl)propanoic acid] | 6.37 | 63 | 6.99 | 75 |
| Cc1ccc(F)c(O)c1-c1ccc(-c2cc3c(CCC(=O)O)n[nH]c3cc2Cl)cc1 [Example 20, 3-(6-chloro-5-(3′-fluoro-2′-hydroxy-6′-methyl-[1,1′-biphenyl]-4-yl)-1H-indazol-3-yl)propanoic acid] | 7.01 | 61 | 7.80 | 82 |
| COC(=O)c1ccc(-c2ccc(-c3cc4c(CCC(=O)O)n[nH]c4cc3Cl)cc2)c(O)c1 [Example 31, 3-(6-Chloro-5-(2′-hydroxy-4′-(methoxycarbonyl)-[1,1′-biphenyl]-4-yl)-1H-indazol-3-yl)propanoic acid] | 6.72 | 61 | 7.24 | 84 |
| CC(=O)NCc1ccc(-c2ccc(-c3cc4c(CCC(=O)O)n[nH]c4cc3Cl)cc2)cc1 [Example 41, 3-(5-(4′-(acetamidomethyl)-[1,1′-biphenyl]-4-yl)-6-chloro-1H-indazol-3-yl)propanoic acid] | 6.63 | 65 | 7.15 | 66 |
| CS(=N)(=O)c1ccc(-c2ccc(-c3cc4c(CCC(=O)O)n[nH]c4cc3Cl)cc2)cc1 (stereo not shown) [Example 24, 3-(6-chloro-5-(4′-(S-methylsulfonimidoyl)-[1,1′-biphenyl]-4-yl)-1H-indazol-3-yl)propanoic acid] | 6.97 | 48 | 7.72 | 86 |
| CS(=O)(=O)c1ccc(-c2ccc(-c3cc4c(CCC(=O)O)n[nH]c4cc3Cl)cc2)cc1 [Example 44, 3-(6-chloro-5-(4′-(methylsulfonyl)-[1,1′-biphenyl]-4-yl)-1H-indazol-3-yl)propanoic acid] | 6.69 | 52 | 7.07 | 79 |
| Cc1ccc(-c2ccc(-c3cc4c(CCC(=O)O)n[nH]c4cc3Cl)cc2)s1 [Example 56, 3-(6-chloro-5-(4-(5-methylthiophen-2-yl)phenyl)-1H-indazol-3-yl)propanoic acid] | 6.32 | 18 | 6.44 | 48 |
